Tests used:
[1] = system: P. aeruginosa; assay: Adjunct ozone and antibiotic therapy antibacterial test; format: cell-based; conditions: ozone 100 ppm (4 mg/hr) for six hours; antibiotic 20 μg/mL; 37° C.
Description: To test the antibacterial effects of ozone in combination with antibiotics, a P. aeruginosa culture was inoculated in a solution of […] soy broth (TSB) and incubated overnight. A sample of the mature culture was diluted in new TSB at 1:50. The new culture media was then pipetted into test wells in triplicate at 1:10 with either linezolid or vancomycin solution in phosphate buffered saline (PBS) at 200 μg/mL. […] The bacterial samples were subject to the combination treatment of 100 ppm (4 mg/hr) ozone with vancomycin at 20 μg/mL and linezolid at 20 μg/mL. During testing, the test samples were kept at 37° C. At 2, 4, and six hours, 20 μL samples were withdrawn from the designated set of wells and plated on TSB agar plates. Bacterial colonies were counted after being incubated overnight at 37°. Experimental adjunct therapy samples were compared against treatment of only ozone, and control cultures exposed to antibiotics without the ozone. Because both antibiotics in the test (linezolid and vancomycin) are designed to be effective against G+ve bacteria, it was expected that neither will show any effect against the bacterial strain unless combined with ozone. Additionally, treatment was administered to in vitro colonies of P. aeruginosa under ideal conditions for bacterial growth.

[2] = system: P. aeruginosa; conditions: cited from earlier work
[3] = system: S. epidermidis; conditions: cited from earlier work
[4] = system: P. aeruginosa; assay: Secondary study: pristine vs biofluid-preconditioned patch, bacteria spotted on filter paper; format: cell-based; conditions: ozone for six hours
Description: A secondary study was also conducted on P. aeruginosa to verify that prolonged contact to a wound environment would not change antimicrobial properties. In each case, 100 μL of P. aeruginosa was diluted into 1 mL of PBS and spotted onto filter paper. Each experimental trial was exposed to the ozone for six hours. The first test was conducted through an untreated patch 10, while the second was conducted using a patch 10 that had been preconditioned by resting on a damp sponge filled with mammalian cell culture media overnight. FIGS. 9A and 9B report the results of the tests when compared to the controls, which were prepared in the same way, but exposed to no ozone treatment.

[5] = system: human keratinocyte cells; assay: Biocompatibility of adjunct therapy; format: cell-based; conditions: six hour, 100 ppm ozone; nanofiber solution with or without antibiotic
Description: By studying the biocompatibility, it was determined that the treatment system was both effective and safe to use. To test this, human keratinocyte cells were either exposed to the ozone therapy (with or without antibiotics) or left as a control. In each case, cell samples were exposed to test inhibitory concentration of the nanofiber solution containing either linezolid, vancomycin, or no antibiotic. Tests were conducted under the same six hour and 100 ppm ozone parameters as the antibacterial studies.

[6] = system: normal mammary fibroblasts HMS-32 cells; assay: Cytotoxicity of ozone treatment on human cells; format: cell-based
Description: FIGS. 10A through 10D include images of normal mammary fibroblasts HMS-32 cells initial (FIG. 10A), after six hours of ozone treatment (FIG. 10B), 24 hours after ozone treatment (FIG. 10C), and 48 hours after ozone treatment (FIG. 10D). Scale bar 10 micrometers. FIG. 10E contains a graph showing percentage of apoptotic cells at each time in a control group and an experimental group. Data was collected from triplicate samples, with error bars indicating standard deviation.
The possibility for the use of ozone to treat antibiotic resistant infections is also dependent on the apparatus not damaging the normal skin cells. Cytotoxic experimentation was conducted to determine how the ozone treatment would interact with human skin cells (FIG. 10A through 10D). […] Ozone treatment has been used to increase the healing process for chronic wounds, so there is good reason to believe a high level of biocompatibility exists. […] Similar to the stain imaging done for the antimicrobial results, FIGS. 10A through 10D are stain images that show the health of the cells at each time point. In each cell, F-actin was stained green, and the nuclei were stained blue. These images support finding minimal cytotoxicity because there is no noticeable difference in the images over time. […]

[7] = system: S. epidermidis NRS101; assay: Antibacterial test of ozone applied by the patch; format: cell-based; conditions: six hours of ozone exposure through the patch
Description: (§1) The antibacterial properties of the patch 10 were assessed by exposing multiple strains of antibiotic resistant bacteria (both Gram-negative and Gram-positive) to the ozone applied by the patch 10 for six hours, and measuring the living concentration every one to two hours. Experiments using two common strains of antibiotic resistant bacteria common in skin infections, S. epidermidis NRS101 and P. aeruginosa ATCC 15442, indicated positive results. […] FIGS. 8A through 8C show bacteria stain images of the samples before and after treatment, and a control. At first, all of the bacteria were stained green, and then any dead bacteria were re-stained with the red. These images show qualitatively that the bacteria before the treatment are living, and afterward are mostly dead. […] Additionally, results for the Gram-negative bacteria, P. aeruginosa, indicated even better results. […] FIGS. 8D, 8E, and 8F show similar stain images for P. aeruginosa.

[8] = system: P. aeruginosa ATCC 15442; assay: Antibacterial test of ozone applied by the patch; format: cell-based; conditions: initial 5 log CFU/mL concentration; within six hours of treatment
Description: as §1

For `CC(=O)NC[C@H]1CN(c2ccc(N3CCOCC3)c(F)c2)C(=O)O1` [linezolid], the “bacterial population (CFU/mL) compared to initial” value [1] was “did not inhibit the growth of the bacteria at all”.

In the case of `C[C@@H](O)[C@H]1C(=O)N2C(C(=O)O)=C(S[C@@H]3CN[C@H](C(=O)N(C)C)C3)[C@H](C)[C@H]12` [meropenem], the “known effectiveness / resistance” value [2] is given as “known to be effective”.

In the case of `Cc1onc(-c2ccccc2)c1C(=O)N[C@@H]1C(=O)N2[C@@H]1SC(C)(C)[C@@H]2C(=O)O` [oxacillin], the “known effectiveness / resistance” value [3] is listed as “resisted”.

With `O=[O+][O-]` [ozone] the elimination of bacteria ([4]; patch preconditioned overnight on sponge with mammalian cell culture media) was “complete elimination of bacteria”, the elimination of bacteria ([4]; untreated (pristine) patch) was “complete elimination of bacteria” and the “percent of cell viability” value [5] was “did not significantly change”. The “increase in cell apoptosis” value ([6]; after six, 24 and 48 hours) was “no significant increase in cell apaptosis”, the “increase in cell apoptosis” value ([6]; over 48 hours after six hours of ozone exposure) was 6.5% and the “log10 reduction CFU/mL” value [7] was 0.8 log10 reduction CFU/mL. For the same molecule, the “reduction from the starting inoculum” value [7] was “greater than 70%” and the eradication of bacteria [8] was “completely eradicate”.

In the case of `NC[C@H]1O[C@H](O[C@H]2[C@H](O)[C@@H](O[C@H]3O[C@H](CO)[C@@H](O)[C@H](N)[C@H]3O)[C@H](N)C[C@@H]2N)[C@H](N)C[C@@H]1O` [tobramycin], the “known effectiveness / resistance” value [2] is given as “resisted”.

In the case of `CN[C@H](CC(C)C)C(=O)N[C@H]1C(=O)N[C@@H](CC(N)=O)C(=O)N[C@H]2C(=O)N[C@H]3C(=O)N[C@H](C(=O)N[C@H](C(=O)O)c4cc(O)cc(O)c4-c4cc3ccc4O)[C@H](O)c3ccc(c(Cl)c3)Oc3cc2cc(c3O[C@@H]2O[C@H](CO)[C@@H](O)[C@H](O)[C@H]2O[C@H]2C[C@](C)(N)[C@H](O)[C@H](C)O2)Oc2ccc(cc2Cl)[C@H]1O` [vancomycin], the “bacterial population (CFU/mL) compared to initial” value [1] is listed as “no impact on bacteria growth” and the “known effectiveness / resistance” value [3] is listed as “known to be effective”.

For colistin, the “known effectiveness / resistance” value [2] is listed as “known to be effective”.

For penicillin, the “known effectiveness / resistance” value [3] is listed as “resisted” and the “known effectiveness / resistance” value [2] is listed as “resisted”.

From patent US20230256217A1, “OZONE GENERATION APPARATUSES AND METHODS OF TREATING WOUNDS” (priority 2020, published 2023)
